Results from article PMC11472313, “Development of Fragment-Based Inhibitors of the Bacterial Deacetylase LpxC with Low Nanomolar Activity” (Journal of Medicinal Chemistry, 2024).
Several values for one entry are separate records, joined by “and”; a condition that tells them apart may be missing. Equal entries are not always repeated.

What was measured:
P. aeruginosa LpxC = target: T1, P. aeruginosa LpxC (Pseudomonas aeruginosa, UniProt P47205); test: LC–MS/MS-based P. aeruginosa LpxC enzyme inhibition assay; type: biochemical; conditions: from IC50 via Cheng–Prusoff
T1 construct: made in house; host or cells: E. coli BL21(DE3)
Source text: As Pseudomonas aeruginosa is one of the so-called ESKAPE pathogens,[56] being the leading cause of nosocomial infections throughout the world, and carbapenem-resistant P. aeruginosa strains were assigned the highest priority (priority 1: critical) within the “WHO priority pathogens list for R&D of new antibiotics” (WHO 2017),[57] new antibacterial agents combating these bacteria are urgently required. Thus, our newly developed LpxC inhibitors should be tested for inhibitory activity toward P. aeruginosa LpxC, which shares 57% sequence identity with E. coli LpxC.[28] Therefore, a liquid chromatography with tandem mass spectrometry (LC–MS/MS)-based P. aeruginosa LpxC assay was established. […] After incubation and subsequent termination of the enzymatic reaction, the samples were subjected to LC–MS/MS analysis. Following the chromatographic separation of substrate 1 and deacetylated product 2, the eluted compounds were ionized and subjected to fragmentation. Three multiple reaction monitoring (MRM) transitions were detected per compound [precursor ions: m/z (substrate 1) 832; m/z (deacetylated product 2) 790; product ions: m/z (product 1) 385, collision energy = −60 V; m/z (product 2) 159, collision energy = −80 V; m/z (product 3) 79, collision energy = −140 V]. The MRM transitions 832 → 79 of substrate 1 and 790 → 79 of product 2 were used as quantifiers; the other mass transitions were used as qualifiers.
The protocol of the LC–MS/MS-based P. aeruginosa LpxC assay was based on the E. coli LpxC C63A enzyme assay. Compared to the fluorescence-based enzyme assay, the substrate was diluted 1:10 and the inhibitors were diluted 1:4.
The wells in a black, nonbinding, 96-well fluorescence microplate (Greiner Bio One, Frickenhausen) were filled with 93 μL of 2.69 μM UDP-3-O-[(R)-3-hydroxymyristoyl]-N-acetylglucosamine in assay buffer [50 mM KH2PO4/K2HPO4 (pH = 7.5), 80 μM dithiothreitol, 0.02% Brij 35]. In order to assay the inhibitors at final concentrations from 5 nM up to 5 μM, 2 μL of a respective dilution of the compounds in DMSO were added. The addition of 5 μL of a solution of purified P. aeruginosa LpxC (5 μg mL^–1) in assay buffer led to final concentrations of 2.5 μM UDP-3-O-[(R)-3-hydroxymyristoyl]-N-acetylglucosamine, 7.5 nM P. aeruginosa LpxC, 2% DMSO, and from 5 nM up to 5 μM inhibitor. The microplate was incubated for 30 min at 37 °C in a plate shaker. Then, the biochemical reaction was stopped by adding 40 μL of 0.625 M hydrochloric acid. The reaction mixtures were further incubated for 10 min, sealed, and stored at −80 °C until analysis.
LC–MS/MS-Analysis. The reaction mixtures were separated by ultrahigh performance liquid-chromatography (1290 II Infinity UHPLC, Agilent Technologies), and the eluted compounds were analyzed by mass spectrometry using electrospray ionization in negative ion mode with a triple quadrupole linear ion trap mass spectrometer (QTRAP 5500, AB Sciex LLC).
To analyze the eluted compounds by mass spectrometry, a MRM method was applied. The specific parameters of this method are given in Table S2 (Supporting Information). After detection and selection of the precursor ions (1: m/z 832; 2: m/z 790), both analytes were fragmented, leading to three identical product ions [m/z (product 1) 385, collision energy = −60 V; m/z (product 2) 159, collision energy = −80 V; m/z (product 3) 79, collision energy = −140 V]. The mass transitions 832 → 79 (substrate 1) and 790 → 79 (product 2) were used as quantifiers; the other mass transitions were used as qualifiers. The ratio between substrate 1 and product 2 was quantified by comparing the peak areas of the quantifiers. The percentual inhibition caused by each inhibitor concentration was determined with respect to the amount of the product formed in the noninhibited reaction after 30 min.
Each assay was performed at least two times on separate days. […]

[1] = stability in mouse plasma; type: in vitro ADME; conditions: 1 μM compound, pooled CD-1 mouse plasma; for half-life at 1 μM: CD-1, mouse, pooled plasma, read-out: mouse plasma stability t1/2
Method: To determine stability in mouse plasma, the compound (1 μM) was incubated with pooled CD-1 mouse plasma (Neo Biotech, Nanterre, France). Samples were taken at defined time points by mixing aliquots with 4 volumes of acetonitrile containing internal standard (125 nM diphenhydramine). Samples were stored on ice until the end of the incubation, and the precipitated protein was removed by centrifugation (15 min, 4 °C, 4000g, 2 centrifugation steps). Concentration of the remaining test compound at the different time points was analyzed by HPLC–MS/MS (TSQ Quantum Access MAX, Thermo Fisher, Dreieich, Germany). The plasma stability of procain, propantheline, and diltiazem were determined in parallel to confirm enzymatic activity.

[2] = log D7.4, HPLC-based method; type: physicochemical; conditions: pH 7.4, HPLC-based; read-out: logD7.4
Method: Log D7.4 was analyzed using an HPLC-based method. The UV retention time of reference compounds with known log D7.4 was determined and plotted toward their log D7.4. Linear regression was used to determine the log D7.4 of unknown compounds. Analysis was performed using a Vanquish Flex HPLC system with a variable wavelength detector (Thermo Fisher, Dreieich, Germany) with the following conditions: EC150/2 NUCLEODUR C18 Pyramid column, […] (Macherey Nagel, Düren, Germany); eluent A: 50 mM NH4OAc pH 7.4, eluent B: acetonitrile, and flow: 0.6 mL/min; gradient elution: (B %): 0–2.5 min: gradient from 0 to 100%, 2.5–3.0 min: 100%, 3.0–3.2 min: gradient from 100 to 0%, 3.2–5.0 min: 0%.

[3] = MTT-based cytotoxicity assay; type: cell-based; conditions: human, HepG2 cells
Source text: An MTT-based assay was employed to evaluate the viability of HepG2 cells after challenge with selected inhibitors and performed as described previously.[77]

TACE (ADAM-17) = target: T2, TACE (ADAM-17) (Homo sapiens, UniProt P78536); test: TACE (ADAM-17) inhibitor screening kit; type: biochemical; conditions: for inhibition at 20 µM: read-out: TACE (% inhibition at 20 μM)
T2 construct: purchased Sigma-Aldrich (Saint Louis, MO)
Method: Since LpxC and LasB are zinc-dependent enzymes, we investigated potential off-target activity of the three frontrunners on mammalian zinc-dependent enzymes. Our panel comprised three representative matrix-metalloproteases (MMP1–3) and tumor necrosis factor-α converting enzyme (TACE, also known as ADAM17) (Table 6).
Purification of LasB from P. aeruginosa PA14 supernatant and the subsequent performance of the FRET-based in vitro inhibition assay was performed as described previously.[66] The TACE (ADAM-17) inhibitor screening kit was purchased from Sigma-Aldrich (Saint Louis, MO). MMPs 1–3 along with the SensoLyte 520 Generic MMP Activity Kit Fluorimetric were purchased from AnaSpec (Fremont, CA, USA). The assays were performed according to the guidelines of the respective manufacturer. Fluorescence signals were measured using a CLARIOstar plate reader (BMG Labtech, Ortenberg, Germany).

T1 sequence (P47205 whole entry): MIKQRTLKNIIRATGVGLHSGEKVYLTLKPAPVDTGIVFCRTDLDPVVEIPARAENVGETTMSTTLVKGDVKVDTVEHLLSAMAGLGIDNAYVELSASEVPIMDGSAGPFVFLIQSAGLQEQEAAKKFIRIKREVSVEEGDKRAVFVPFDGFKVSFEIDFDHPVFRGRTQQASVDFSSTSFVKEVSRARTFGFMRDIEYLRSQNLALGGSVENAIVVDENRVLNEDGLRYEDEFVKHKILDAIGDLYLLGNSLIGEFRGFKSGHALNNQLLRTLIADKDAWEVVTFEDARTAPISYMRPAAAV
T2 sequence (P78536 215-824, species assumed): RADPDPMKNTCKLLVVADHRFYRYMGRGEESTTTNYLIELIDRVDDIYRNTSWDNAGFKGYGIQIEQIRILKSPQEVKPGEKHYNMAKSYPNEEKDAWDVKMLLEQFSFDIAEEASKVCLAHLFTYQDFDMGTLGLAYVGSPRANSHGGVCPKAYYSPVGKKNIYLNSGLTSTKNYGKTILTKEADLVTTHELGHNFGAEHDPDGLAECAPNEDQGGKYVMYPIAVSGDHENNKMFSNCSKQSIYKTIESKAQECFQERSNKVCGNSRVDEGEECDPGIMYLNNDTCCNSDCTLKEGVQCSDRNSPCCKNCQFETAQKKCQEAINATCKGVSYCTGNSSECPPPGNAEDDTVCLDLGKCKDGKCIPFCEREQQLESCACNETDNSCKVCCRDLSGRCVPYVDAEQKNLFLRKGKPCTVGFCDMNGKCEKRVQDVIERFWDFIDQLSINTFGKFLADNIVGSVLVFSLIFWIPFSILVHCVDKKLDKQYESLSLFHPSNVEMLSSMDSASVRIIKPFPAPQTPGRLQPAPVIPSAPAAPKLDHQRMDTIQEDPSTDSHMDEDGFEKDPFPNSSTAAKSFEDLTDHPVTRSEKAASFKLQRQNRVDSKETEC

Structure (SMILES) | Ki (P. aeruginosa LpxC) | further results
O=C(NO)[C@H](COCc1ccccc1)OCc1ccc(C#Cc2ccc(CN3CCOCC3)cc2)cc1 [(S)-11a, (S)-3-(Benzyloxy)-N-hydroxy-2-[(4-{[4-(morpholinomethyl)phenyl]ethynyl}benzyl)oxy]propanamide] | 725 ± 335 nM | –
O=C(NO)[C@H](CNCc1ccccc1)OCc1ccc(C#Cc2ccc(CN3CCOCC3)cc2)cc1 [(S)-12a, (S)-3-(Benzylamino)-N-hydroxy-2-[(4-{[4-(morpholinomethyl)phenyl]ethynyl}benzyl)oxy]propanamide] | 862 ± 70 nM | –
O=C(NC[C@H](OCc1ccc(C#Cc2ccc(CN3CCOCC3)cc2)cc1)C(=O)NO)c1ccccc1 [(S)-13a, (S)-N-{3-(Hydroxyamino)-2-[(4-{[4-(morpholinomethyl)phenyl]ethynyl}benzyl)oxy]-3-oxopropyl}benzamide] | 58.2 ± 0.1 nM | –
O=C(NC[C@H](OCc1ccc(C#Cc2ccc(CN3CCOCC3)cc2)cc1)C(=O)NO)c1cccc(-c2ccccc2)c1 [(S)-13c] | 149 ± 14 nM | –
O=C(NC[C@H](OCc1ccc(C#Cc2ccc(CN3CCOCC3)cc2)cc1)C(=O)NO)c1ccc(Oc2ccccc2)cc1 [(S)-13d] | 196 ± 18 nM | –
O=C(NC[C@H](OCc1ccc(C#Cc2ccc(CN3CCOCC3)cc2)cc1)C(=O)NO)c1ccc2ccccc2n1 [(S)-13e] | 168 ± 8 nM | –
O=C(NC[C@H](OCc1ccc(C#Cc2ccc(CN3CCOCC3)cc2)cc1)C(=O)NO)c1cnc2ccccc2c1 [(S)-13f] | 91.1 ± 17.5 nM | –
O=C(NC[C@H](OCc1ccc(C#Cc2ccc(CN3CCOCC3)cc2)cc1)C(=O)NO)c1cc2ccccc2[nH]1 [(S)-13g] | 46 ± 16.4 nM | –
O=C(NC[C@H](OCc1ccc(C#Cc2ccc(CN3CCOCC3)cc2)cc1)C(=O)NO)c1c[nH]c2ccccc12 [(S)-13h] | 5.91 ± 1.47 nM | half-life at 1 μM [1]: 22.9 ± 4.8 min; chromatographic logD [2]: 3.63; IC50 [3]: 15100 ± 1700 nM; inhibition at 20 µM (TACE (ADAM-17)): < 10%
O=C(NC[C@H](OCc1ccc(C#Cc2ccc(CN3CCOCC3)cc2)cc1)C(=O)NO)c1cccc2[nH]ccc12 [(S)-13i] | 10.3 ± 2 nM | –
O=C(NC[C@H](OCc1ccc(C#Cc2ccc(CN3CCOCC3)cc2)cc1)C(=O)NO)c1ccc2[nH]ccc2c1 [(S)-13j] | 5.6 nM and 5.58 nM | mouse plasma stability t1/2 [1]: 43 ± 13 min; half-life at 1 μM [1]: 43.1 min; chromatographic logD [2]: 3.33; IC50 [3]: 8100 ± 1400 nM; inhibition at 100 µM (TACE (ADAM-17); 100 μM (as printed in text)): 38%; inhibition at 20 µM (TACE (ADAM-17)): 38 ± 5%
O=C(NC[C@H](OCc1ccc(C#Cc2ccc(CN3CCOCC3)cc2)cc1)C(=O)NO)c1ccc[nH]1 [(S)-13k] | 29 ± 7.6 nM | –
O=C(NC[C@H](OCc1ccc(C#Cc2ccc(CN3CCOCC3)cc2)cc1)C(=O)NO)c1cc[nH]n1 [(S)-13l] | 18 ± 2.9 nM | half-life at 1 μM [1]: 24.2 ± 5 min; chromatographic logD [2]: 2.43; IC50 [3]: 30200 ± 1900 nM; IC50 (TACE (ADAM-17)): 5400 nM; selectivity factor for TACE (TACE (ADAM-17); TACE versus LpxC): 8.4; inhibition at 20 µM (TACE (ADAM-17)): 81 ± 2%
O=C(NC[C@H](OCc1ccc(C#Cc2ccc(CN3CCOCC3)cc2)cc1)C(=O)NO)c1cc(-c2ccccc2)[nH]n1 [(S)-13m] | 41.9 ± 18.5 nM | –
Cc1noc(C)c1C(=O)NC[C@H](OCc1ccc(C#Cc2ccc(CN3CCOCC3)cc2)cc1)C(=O)NO [(S)-13n] | 80.4 ± 9.7 nM | –
O=C(NO)[C@H](CN(Cc1ccccc1)Cc1ccccc1)OCc1ccc(C#Cc2ccc(CN3CCOCC3)cc2)cc1 [(S)-37, (S)-3-(Dibenzylamino)-N-hydroxy-2-[(4-{[4-(morpholinomethyl)phenyl]ethynyl}benzyl)oxy]propanamide] | > 3250 nM | –
